Experimental findings from ChEMBL document CHEMBL4602606, “Differentiating the Pharmacodynamics and Toxicology of Macrolide and Ketolide Antibiotics” (J Med Chem, 2020) are described below.

Values after ≈ are worked out from the molar mass of the structure shown. Some results are limits rather than exact numbers.

The term Cmax denotes the highest concentration seen after dosing. The IC50 is the concentration that inhibits the measured activity by half. One may read the EC50 as the midpoint of the concentration-response curve.

Series [1] is described as follows: Terminal half life in human. Particulars: read-out: beta t1/2. The class given is ADME.
Series [2] in a line: Maximum serum concentration in human at 500 mg, po measured within 2 hrs. The class given is ADME, organism-based. The arrangement: dose 500 mg, route oral. As to conditions: in vivo.
For series [3], the system named is Haemophilus influenzae. Put plainly: Antibacterial activity against Haemophilus influenzae. The class given is functional.
The nature of series [4]: Protein binding in plasma (unknown origin). Particulars: read-out: PPB. The class given is ADME, cell-free.
Series [5] is described as follows: Maximum serum concentration in human at 500 mg, po. The class given is ADME. The arrangement: dose 500 mg, route oral.
A short description of series [6]: Inhibition of human nAChR expressed in human TE671 cells assessed as reduction in nicotine-induced current response by whole-cell patch-clamp method. The class given is cell-based. As to conditions: TE-671. On the technique in general: The patch-clamp technique gives a direct electrical read-out from membranes.
Series [7] has as its system Streptococcus pneumoniae. The series can be described thus: Antibacterial activity against erythromycin-susceptible Streptococcus pneumoniae. The class given is functional.
Series [8] concerns the target Neuronal acetylcholine receptor; alpha3/beta4 (Homo sapiens, UniProt P30926+P32297). Put plainly: Inhibition of human alpha3beta4 nAChR assessed as […] in acetylcholine-induced normalized current at 2 uM (reference value: 78.5 +/- 10 uM). The class given is protein-complex assay.
Series [9] concerns Streptococcus pneumoniae. The series can be described thus: Antibacterial activity against erythromycin-resistant Streptococcus pneumoniae. The class given is functional.

Chain of Neuronal acetylcholine receptor; alpha3/beta4 (P30926 whole entry): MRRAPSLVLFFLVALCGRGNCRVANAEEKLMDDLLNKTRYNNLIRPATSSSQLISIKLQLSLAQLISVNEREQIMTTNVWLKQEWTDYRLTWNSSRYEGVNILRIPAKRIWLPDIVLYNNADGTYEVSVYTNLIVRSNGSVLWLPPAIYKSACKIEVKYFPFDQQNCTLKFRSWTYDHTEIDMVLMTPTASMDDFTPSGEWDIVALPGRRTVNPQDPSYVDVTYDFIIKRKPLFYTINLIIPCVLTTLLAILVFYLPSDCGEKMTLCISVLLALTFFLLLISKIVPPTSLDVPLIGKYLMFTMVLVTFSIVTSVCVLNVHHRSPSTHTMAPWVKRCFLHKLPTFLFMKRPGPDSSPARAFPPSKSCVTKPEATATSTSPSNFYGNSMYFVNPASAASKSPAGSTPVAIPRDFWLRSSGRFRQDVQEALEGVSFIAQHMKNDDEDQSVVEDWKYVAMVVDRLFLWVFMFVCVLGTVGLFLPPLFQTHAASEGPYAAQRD
Chain of Neuronal acetylcholine receptor; alpha3/beta4 (P32297 whole entry): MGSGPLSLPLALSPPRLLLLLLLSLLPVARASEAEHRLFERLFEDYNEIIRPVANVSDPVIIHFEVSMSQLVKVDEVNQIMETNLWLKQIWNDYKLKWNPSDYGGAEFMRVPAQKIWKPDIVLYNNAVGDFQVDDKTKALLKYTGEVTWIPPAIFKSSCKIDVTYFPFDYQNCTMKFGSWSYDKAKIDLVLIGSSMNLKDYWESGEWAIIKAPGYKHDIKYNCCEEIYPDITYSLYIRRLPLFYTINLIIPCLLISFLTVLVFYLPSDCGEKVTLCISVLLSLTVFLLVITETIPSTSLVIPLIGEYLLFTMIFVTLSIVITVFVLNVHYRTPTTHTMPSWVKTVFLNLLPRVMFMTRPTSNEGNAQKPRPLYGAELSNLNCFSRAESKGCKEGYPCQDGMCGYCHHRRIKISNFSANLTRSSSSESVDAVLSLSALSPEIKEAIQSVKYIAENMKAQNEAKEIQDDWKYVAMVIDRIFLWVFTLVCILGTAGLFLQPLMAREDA

For `CC[C@H]1OC(=O)[C@H](C)[C@@H](O[C@H]2C[C@@](C)(OC)[C@@H](O)[C@H](C)O2)[C@H](C)[C@@H](O[C@@H]2O[C@H](C)C[C@H](N(C)C)[C@H]2O)[C@](C)(O)C[C@@H](C)CN(C)[C@H](C)[C@@H](O)[C@]1(C)O` [AZITHROMYCIN], the half-life in [1] lay within 2 to 4 days. The peak concentration (Cmax) in series [2] was in the range of 0.35 to 0.45 mg/mL. This molecule yielded an MIC in series [3] of 0.25 µg/mL (≈ 0.334 µM).

On to `CC[C@H]1OC(=O)[C@H](C)C(=O)[C@H](C)[C@@H](O[C@@H]2O[C@H](C)C[C@H](N(C)C)[C@H]2O)[C@](C)(OCC=Cc2cnc3ccccc3c2)C[C@@H](C)C(=O)[C@H](C)[C@H]2NC(=O)O[C@@]21C` [CETHROMYCIN], for which the fraction unbound in [4] is less than 0.04.

Turning to `CC[C@H]1OC(=O)[C@H](C)[C@@H](O[C@H]2C[C@@](C)(OC)[C@@H](O)[C@H](C)O2)[C@H](C)[C@@H](O[C@@H]2O[C@H](C)C[C@H](N(C)C)[C@H]2O)[C@](C)(OC)C[C@@H](C)C(=O)[C@H](C)[C@@H](O)[C@]1(C)O` [CLARITHROMYCIN], the Cmax in [5] amounted to 2500 ng/mL.

With `CC[C@H]1OC(=O)[C@H](C)[C@@H](O[C@H]2C[C@@](C)(OC)[C@@H](O)[C@H](C)O2)[C@H](C)[C@@H](O[C@@H]2O[C@H](C)C[C@H](N(C)C)[C@H]2O)[C@](C)(O)C[C@@H](C)C(=O)[C@H](C)[C@@H](O)[C@]1(C)O` [ERYTHROMYCIN], the MIC in series [3] is 0.5 to 2 µg/mL (≈ 0.681 to 2.73 µM).

On to `CC[C@H]1OC(=O)[C@H](C)C(=O)[C@H](C)[C@@H](O[C@@H]2O[C@H](C)C[C@H](N(C)C)[C@H]2O)[C@](C)(OC)C[C@@H](C)C(=O)[C@H](C)[C@H]2N(CCCCn3cnc(-c4cccnc4)c3)C(=O)O[C@]12C` [TELITHROMYCIN], for which the half-inhibitory concentration (IC50) in [6] is 3.5 µM. The values for the MIC in series [7] and in series [9] were 0.06 µg/mL (≈ 0.0739 µM) and 0.25 µg/mL (≈ 0.308 µM), respectively. For the same molecule, in series [8], the EC50 amounted to 132 µM.
